# Measured values published in publication PMC4795788, “Finding Potent Sirt Inhibitor in Coffee: Isolation, Confirmation and Synthesis of Javamide-II (N-Caffeoyltryptophan) as Sirt1/2 Inhibitor” (PLoS ONE, 2016).
# Assays:
# Format in all cases: biochemical
# [1] = target: T1, Sirt1 (Homo sapiens, UniProt Q96EB6); test: fluorescent deacetylase assay
# T1 construct: human recombinant Sirt1 (Cayman Direct Fluorescent Screening Assay kit)
# T1 sequence (Q96EB6 2-747): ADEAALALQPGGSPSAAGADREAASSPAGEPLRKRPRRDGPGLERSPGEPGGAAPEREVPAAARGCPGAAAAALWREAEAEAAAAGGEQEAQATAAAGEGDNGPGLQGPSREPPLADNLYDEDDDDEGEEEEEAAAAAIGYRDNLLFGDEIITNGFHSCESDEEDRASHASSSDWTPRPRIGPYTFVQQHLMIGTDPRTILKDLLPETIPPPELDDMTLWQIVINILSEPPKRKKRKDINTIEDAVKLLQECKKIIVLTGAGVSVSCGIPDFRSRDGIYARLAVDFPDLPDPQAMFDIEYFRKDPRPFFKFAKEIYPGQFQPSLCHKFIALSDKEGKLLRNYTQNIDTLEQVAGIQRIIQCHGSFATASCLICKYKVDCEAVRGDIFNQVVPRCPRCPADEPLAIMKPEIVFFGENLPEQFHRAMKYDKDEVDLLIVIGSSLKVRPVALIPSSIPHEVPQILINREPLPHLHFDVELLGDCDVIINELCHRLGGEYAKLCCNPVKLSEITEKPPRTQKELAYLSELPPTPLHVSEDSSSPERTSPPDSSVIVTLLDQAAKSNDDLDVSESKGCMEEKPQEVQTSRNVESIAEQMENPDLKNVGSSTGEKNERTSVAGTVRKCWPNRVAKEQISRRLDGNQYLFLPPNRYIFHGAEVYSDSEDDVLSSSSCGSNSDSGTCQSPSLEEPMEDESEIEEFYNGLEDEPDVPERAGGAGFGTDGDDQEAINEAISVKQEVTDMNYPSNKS
# [2] = target: T2, Sirt2 (Homo sapiens, UniProt Q8IXJ6); test: fluorescent deacetylase assay, Lineweaver-Burk kinetics (IC50 […])
# T2 sequence (Q8IXJ6 2-389): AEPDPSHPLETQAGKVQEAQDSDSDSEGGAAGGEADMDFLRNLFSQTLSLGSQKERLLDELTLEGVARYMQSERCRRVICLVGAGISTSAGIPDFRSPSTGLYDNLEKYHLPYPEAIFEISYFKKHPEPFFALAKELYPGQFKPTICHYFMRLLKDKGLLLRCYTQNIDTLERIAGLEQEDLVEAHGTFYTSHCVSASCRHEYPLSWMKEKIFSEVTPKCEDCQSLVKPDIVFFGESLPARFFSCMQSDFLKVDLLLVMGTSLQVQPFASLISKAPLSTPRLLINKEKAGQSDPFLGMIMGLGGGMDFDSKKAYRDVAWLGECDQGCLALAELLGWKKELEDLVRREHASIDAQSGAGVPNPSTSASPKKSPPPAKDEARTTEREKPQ
# [3] = target: T3, Sirt3 (Homo sapiens, UniProt Q9NTG7); test: fluorescent deacetylase assay, % inhibition at […]
# T3 construct: human recombinant Sirt3 (Cayman Direct Fluorescent Screening Assay kit)
# T3 sequence (Q9NTG7 102-399): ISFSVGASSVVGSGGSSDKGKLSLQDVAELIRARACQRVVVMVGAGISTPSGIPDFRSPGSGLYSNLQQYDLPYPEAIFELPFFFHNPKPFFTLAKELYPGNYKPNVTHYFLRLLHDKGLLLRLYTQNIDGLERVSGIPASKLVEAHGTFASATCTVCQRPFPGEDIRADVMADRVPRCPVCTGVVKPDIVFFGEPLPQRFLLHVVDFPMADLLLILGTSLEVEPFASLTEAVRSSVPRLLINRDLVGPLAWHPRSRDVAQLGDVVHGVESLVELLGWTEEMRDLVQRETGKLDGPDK
compound,measurement,setting,value
"O=C(/C=C/c1ccc(O)c(O)c1)N[C@@H](Cc1c[nH]c2ccccc12)C(=O)O [javamide-II, (E)-(3-(3,4-dihydroxyphenyl)acryloyl)tryptophan]",IC50,[1],34 µM
same,Ki,[2],5.3 µM
same,inhibition at 60 µM,[3],50 ± 8.1%
